Measured values published in the supplement of paper PMC12513837.

Compound: CC(=O)N1CCc2c(c(N3CCCc4cc(-c5cnn(C)c5)c(C(F)F)cc43)nn2C2CCC(CN3CCN(c4ccc5c(c4)C(=O)N(C4CCC(=O)NC4=O)C5=O)CC3)CC2)C1 [CBPD-409]
Test: AUC of viability dose-response curve (relative to vehicle, 8 doses up to 10 µM) (fraction); higher = less sensitive (more viable); extreme values may be limits of the assay
Method: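 PRISM multiplexed pooled barcoded cell line viability screen at the Broad Institute, 887 cancer cell lines treated with CBPD-409 (p300/CBP PROTAC degrader) at 8 concentrations in threefold dilution, top dose 10 µM. The read-out is the area under the dose-response curve of relative viability versus vehicle (n=3). AUC < 0.3 is called strongly sensitive and AUC > 0.8 resistant.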

Compared with UMUC10_URINARY_TRACT, UMUC11_URINARY_TRACT is higher in “AUC of viability dose-response curve” value: 0.511 for the first, 0.736 for the second.

First: UMUC13_URINARY_TRACT
Second: UO31_KIDNEY
The “AUC of viability dose-response curve” value of the first is lower: 0.199 for the first, 1 for the second.

Going from UPCISCC072_UPPER_AERODIGESTIVE_TRACT to UPCISCC111_UPPER_AERODIGESTIVE_TRACT, the “AUC of viability dose-response curve” value rises from 0.625 to 1.

Going from UPCISCC116_UPPER_AERODIGESTIVE_TRACT to UW228_CENTRAL_NERVOUS_SYSTEM, the “AUC of viability dose-response curve” value rises from 0.827 to 1.

Compared with VAESBJ_SOFT_TISSUE, VAL_HAEMATOPOIETIC_AND_LYMPHOID_TISSUE is lower in “AUC of viability dose-response curve” value: 0.8 for the first, 0.56 for the second.

Going from VMCUB1_URINARY_TRACT to VMRCRCW_KIDNEY, the “AUC of viability dose-response curve” value rises from 0.443 to 0.631.

Compared with VMRCRCZ_KIDNEY, “WAOSEL_HAEMATOPOIETIC_AND_LYMPHOID_TISSUE” is higher in “AUC of viability dose-response curve” value: 0.584 for the first, 0.826 for the second.

Compared with WERIRB1_AUTONOMIC_GANGLIA, WM88_SKIN is lower in “AUC of viability dose-response curve” value: 1 for the first, 0.893 for the second.

First: WM793_SKIN
Second: WM983B_SKIN
The “AUC of viability dose-response curve” value of the first is higher: 0.949 for the first, 0.774 for the second.

First: WM1799_SKIN
Second: WM2664_SKIN
The “AUC of viability dose-response curve” value of the first is lower: 0.639 for the first, 0.988 for the second.

Going from “WSUDLCL2_HAEMATOPOIETIC_AND_LYMPHOID_TISSUE” to YAPC_PANCREAS, the “AUC of viability dose-response curve” value rises from 0.505 to 1.

Going from YD8_UPPER_AERODIGESTIVE_TRACT to YD10B_UPPER_AERODIGESTIVE_TRACT, the “AUC of viability dose-response curve” value rises from 0.641 to 1.

Going from YD15_SALIVARY_GLAND to YD38_UPPER_AERODIGESTIVE_TRACT, the “AUC of viability dose-response curve” value rises from 0.397 to 0.559.

First: YH13_CENTRAL_NERVOUS_SYSTEM
Second: YKG1_CENTRAL_NERVOUS_SYSTEM
The “AUC of viability dose-response curve” value of the first is higher: 0.75 for the first, 0.584 for the second.

First: YSCCC_BILIARY_TRACT
Second: ZR751_BREAST
The “AUC of viability dose-response curve” value of the first is higher: 0.853 for the first, 0.411 for the second.
